Source: the supplement of paper PMC10307832

Columns and labels:
Experiment in all cases: relative viability (nuclei count vs DMSO), 5 days (fraction); higher = more cells survive
[1] = compound: C1=CC2=C(C=C(C(=C2N=C1)O)N=NC3=CC4=C(C=C3)C=C(C=C4)S(=O)(=O)O)S(=O)(=O)O + Cc1nc(NC(=O)N2CCC[C@H]2C(N)=O)sc1-c1ccnc(C(C)(C)C(F)(F)F)c1 [Alpelisib] (partner 2 µM)
Method in brief: (§1)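 A single step with final 0.05% Triton X-100, 1% formaldehyde and 1 ug/ml Hoechst fixed the cells and stained nuclei 5 days after treatment. Lung cancer cell lines in 1536-well plates had been treated by pin tool the day after seeding with one drug alone or a fixed anchor-drug dose plus five library-drug doses (not always all listed) in √10 steps, and nuclei were counted on 4× images. Relative viability is the ratio of nuclei in treated wells to nuclei in vehicle wells, taken as the median of duplicate plates.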

[2] = compound: C1=CC2=C(C=C(C(=C2N=C1)O)N=NC3=CC4=C(C=C3)C=C(C=C4)S(=O)(=O)O)S(=O)(=O)O + Cc1nc(Nc2ncc(C(=O)Nc3c(C)cccc3Cl)s2)cc(N2CCN(CCO)CC2)n1 [Dasatinib] (partner 0.075 µM)
Method in brief: as §1

AT-7519 + Foretinib = compound: O=C(NC1CCNCC1)c1n[nH]cc1NC(=O)c1c(Cl)cccc1Cl [AT-7519] + COc1cc2c(Oc3ccc(NC(=O)C4(C(=O)Nc5ccc(F)cc5)CC4)cc3F)ccnc2cc1OCCCN1CCOCC1 [Foretinib] (partner 0.25 µM)
Method in brief: as §1

AT-7519 + Phenformin = compound: O=C(NC1CCNCC1)c1n[nH]cc1NC(=O)c1c(Cl)cccc1Cl [AT-7519] + N=C(N)NC(=N)NCCc1ccccc1 [Phenformin] (partner 250 µM)
Method in brief: as §1

Cell Line | relative viability ([1]; first compound 0.08 µM) | relative viability ([1]; first compound 0.253 µM) | relative viability ([1]; first compound 0.8 µM) | relative viability ([1]; first compound 2.53 µM) | relative viability ([1]; first compound 8 µM) | relative viability ([2]; first compound 0.08 µM) | relative viability ([2]; first compound 0.253 µM) | relative viability ([2]; first compound 0.8 µM) | relative viability ([2]; first compound 2.53 µM) | relative viability ([2]; first compound 8 µM) | relative viability (AT-7519 + Foretinib; first compound 0.01 µM) | relative viability (AT-7519 + Foretinib; first compound 0.03162 µM) | relative viability (AT-7519 + Foretinib; first compound 0.3162 µM) | relative viability (AT-7519 + Foretinib; first compound 1 µM) | relative viability (AT-7519 + Phenformin; first compound 0.01 µM) | relative viability (AT-7519 + Phenformin; first compound 0.03162 µM) | relative viability (AT-7519 + Phenformin; first compound 0.3162 µM) | relative viability (AT-7519 + Phenformin; first compound 1 µM)
SK-LU-1 | 1.06 | 0.968 | 0.98 | 1.1 | 1.18 | 0.2 | 0.177 | 0.212 | 0.167 | 0.172 | 0.803 | 0.794 | 0.88 | 0.433 | 0.499 | 0.444 | 0.322 | 0.231
SK-MES-1 | 0.987 | 0.845 | 0.824 | 0.944 | 0.847 | 0.43 | 0.35 | 0.353 | 0.531 | 0.477 | 0.907 | 1.09 | 0.735 | 0.919 | 0.655 | 0.651 | 0.63 | 0.331
SW 1573 | 0.92 | 0.727 | 0.775 | 0.761 | 0.797 | 0.545 | 0.572 | 0.417 | 0.513 | 0.273 | 0.797 | 0.918 | 0.722 | 0.543 | 0.421 | 0.349 | 0.236 | 0.0778
